One data set deals with T1, NURR-1/RXRα (Homo sapiens, UniProt P19793).
T1 construct: expressed in transfected cells; host or cells: Cos-7 cells
Briefly: Transactivation test, NURR-1-Gal4/RXRα, luciferase reporter in Cos-7 cells. It is filed as cell-based. Conditions: for Emax: COS-7, induction level relative to reference XCT0135908 at 2×10^−5 M (=100%), read-out: hNurr1_RXRaFL Emax (%); for EC50: Cos-7 cells, NURR-1-Gal4/RXRα, luciferase reporter, read-out: hNurr1_RXRaFL EC50. (In general: Reporter assays use an easily measured gene product as a stand-in for the process of interest.)

A further data set deals with T2, NURR-1/RXRγ (Homo sapiens, UniProt P48443).
T2 construct: expressed in transfected cells; host or cells: Cos-7 cells
Briefly: Transactivation test, NURR-1-Gal4/RXRγ, luciferase reporter in Cos-7 cells. Conditions: for Emax: COS-7, induction level relative to reference XCT0135908 at 2×10^−5 M (=100%), read-out: hNurr1_RXRgFL Emax (%); for EC50: Cos-7 cells, NURR-1-Gal4/RXRγ, luciferase reporter, read-out: hNurr1_RXRgFL EC50. It is filed as cell-based.

Data set [1] relates to dopaminergic neurons of primary culture of rat embryo mesencephalon treated with MPP+. In words: Neuroprotection in primary culture of rat embryo mesencephalon treated with MPP+ (count of tyrosine hydroxylase expressing cells). It is filed as cell-based. Conditions: recombinant human BDNF 10 ng/mL = 100%, 2 days with MPP+. Here is the method: Another in vitro test was carried out with the compounds according to the invention, for the purpose of verifying that the molecules indeed have the expected neuroprotective effect in vitro.
The compounds were tested in a model of primary culture of rat embryo mesencephalon treated with 1-methyl-4-phenylpyridinium (MPP+), which is the active metabolite of 1-methyl-4-phenyl-1,2,3,6-tetrahydropyridine (MPTP). MPP+ enters into dopananergic neurons via the dopamine transporter and causes the death of these dopaminergic neurons. The following protocol was used.
Gestating female rats (15 days of gestation) were euthanized and the rat embryos were removed. The mesencephalons were removed. The tissue was then dissociated mechanically and by using trypsin. The cells collected after centrifugation were distributed into 96-well plates and left to stand for 5 days. The culture conditions made it possible to obtain a cell layer composed of neurons (dopaminergic and others) and astrocytes. On the 6th day, the cells were optionally treated with MPP+ in the presence or absence of test compound. After 2 days of incubation, the cells were fixed and various cell labellings were carried out; staining of the nuclei with the Hoechst fluorescent label and immunolabelling of tyrosine hydroxylase. The cells expressing tyrosine hydroxylase were counted using an image analyzer coupled to an optical microscope.
Recombinant human BDNF trophic factor (10 ng/mL) was used as reference. The activities of the compounds are given as percentages of activity relative to the BDNF reference, the activity of which is arbitrarily defined as being equal to 100%.

The source of these data is US20170066717A1, “NEW PHENYLAZETIDINECARBOXYLATE OR -CARBOXAMIDE COMPOUNDS” (INVENTIVA, priority 2014, published 2017).

The structures appear in SMILES notation. Where only a bound is given, the exact number is not on record here.

T1 sequence (P19793 whole entry): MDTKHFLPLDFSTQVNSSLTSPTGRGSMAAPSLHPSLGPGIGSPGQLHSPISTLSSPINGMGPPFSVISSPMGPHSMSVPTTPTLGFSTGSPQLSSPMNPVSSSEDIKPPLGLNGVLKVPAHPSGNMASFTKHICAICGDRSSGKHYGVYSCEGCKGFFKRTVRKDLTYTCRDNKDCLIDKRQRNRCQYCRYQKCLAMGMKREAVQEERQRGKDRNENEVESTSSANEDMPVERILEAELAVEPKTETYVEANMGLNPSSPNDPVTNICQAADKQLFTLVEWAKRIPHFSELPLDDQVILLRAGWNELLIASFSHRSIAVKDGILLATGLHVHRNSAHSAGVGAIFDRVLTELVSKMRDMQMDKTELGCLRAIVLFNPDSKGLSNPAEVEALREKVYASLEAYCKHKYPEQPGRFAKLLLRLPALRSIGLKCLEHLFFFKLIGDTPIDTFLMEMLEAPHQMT
T1 sequence (P43354 whole entry partner): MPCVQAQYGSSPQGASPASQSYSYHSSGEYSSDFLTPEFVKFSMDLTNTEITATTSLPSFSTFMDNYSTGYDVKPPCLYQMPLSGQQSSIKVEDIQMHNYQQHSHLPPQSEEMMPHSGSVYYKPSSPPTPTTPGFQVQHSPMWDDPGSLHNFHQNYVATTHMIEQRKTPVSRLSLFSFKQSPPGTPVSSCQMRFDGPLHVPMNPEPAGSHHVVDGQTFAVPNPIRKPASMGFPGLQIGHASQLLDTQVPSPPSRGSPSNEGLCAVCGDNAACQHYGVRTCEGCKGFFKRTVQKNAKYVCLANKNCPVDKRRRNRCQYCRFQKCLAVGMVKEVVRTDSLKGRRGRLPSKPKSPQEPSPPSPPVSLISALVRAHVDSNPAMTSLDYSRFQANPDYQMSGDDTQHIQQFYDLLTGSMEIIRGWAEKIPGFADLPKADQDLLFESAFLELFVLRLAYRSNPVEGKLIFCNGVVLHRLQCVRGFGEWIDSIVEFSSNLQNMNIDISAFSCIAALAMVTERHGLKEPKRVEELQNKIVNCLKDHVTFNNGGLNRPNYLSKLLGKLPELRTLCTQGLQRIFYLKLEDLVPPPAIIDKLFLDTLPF
T1 sequence (P04386 1-147 partner limits assumed): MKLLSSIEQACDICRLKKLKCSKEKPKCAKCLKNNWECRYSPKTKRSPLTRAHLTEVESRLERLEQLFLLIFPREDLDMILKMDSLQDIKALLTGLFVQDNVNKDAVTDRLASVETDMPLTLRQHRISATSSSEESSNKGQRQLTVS
T2 sequence (P48443 whole entry): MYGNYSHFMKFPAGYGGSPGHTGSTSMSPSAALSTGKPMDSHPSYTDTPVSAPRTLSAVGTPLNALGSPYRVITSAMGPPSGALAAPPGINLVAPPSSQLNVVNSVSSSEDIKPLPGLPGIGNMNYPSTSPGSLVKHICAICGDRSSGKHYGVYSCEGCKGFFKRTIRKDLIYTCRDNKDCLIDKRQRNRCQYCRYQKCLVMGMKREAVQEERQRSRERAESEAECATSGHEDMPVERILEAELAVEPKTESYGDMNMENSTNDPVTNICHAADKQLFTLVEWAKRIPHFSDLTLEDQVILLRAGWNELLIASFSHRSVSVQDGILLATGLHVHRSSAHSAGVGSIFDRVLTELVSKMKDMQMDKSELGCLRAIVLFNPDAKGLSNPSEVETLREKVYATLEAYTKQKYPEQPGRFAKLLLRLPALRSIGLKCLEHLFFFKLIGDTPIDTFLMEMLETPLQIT
T2 sequence (P43354 whole entry partner): as the sequence (P43354 whole entry partner) above
T2 sequence (P04386 1-147 partner limits assumed): as the sequence (P04386 1-147 partner limits assumed) above

As usually defined, the Emax is the size of the effect at its maximum, as opposed to the concentration needed. As a reminder, the EC50 is the midpoint of the concentration-response curve. For the compound `Cc1cc(-c2cccc(N3CC(C(=O)O)C3)c2)cc(C(F)(F)F)c1` [Example 12, 1-[3-[3-methyl-5-(trifluoromethyl)phenyl]phenyl]azetidine-carboxylic acid], the Emax was 122% on NURR-1/RXRα and 129% on NURR-1/RXRγ. For the same compound, the figures for the EC50 on NURR-1/RXRα and at NURR-1/RXRγ were 46 nM and 48 nM, respectively. Further, the “percentage of activity relative to the BDNF reference” value amounted to 64% in data set [1] (compound 1 μM) and 74% in data set [1] (compound 10 μM).
Turning to `Cc1cc(N2CC(C(=O)O)C2)cc(-n2cc(C)c3nc(C(F)(F)F)ccc32)c1` [Example 58, 1-[3-methyl-5-[3-methyl;-5-(trifluoromethyl)pyrrol[3,2,-b]pyridine-1-yl]phenyl]azetidine-3-carboxylic acid], the Emax was found to be 118% on NURR-1/RXRα and 102% at NURR-1/RXRγ. The EC50 at NURR-1/RXRα was determined as 7 nM; at NURR-1/RXRγ, 13 nM. Also, the “percentage of activity relative to the BDNF reference” value in data set [1] (compound 1 μM) was determined as 80%; in data set [1] (compound 10 μM) it was 79%.
In the case of `CC1(C)CNc2c(cc(C(F)(F)F)cc2-c2cccc(N3CC(C(=O)O)C3)c2)O1` [Example 61, 1-[3-[2,2-dimethyl-7-(trifluoromethyl)-3,4 dihydro-1,4-benzoxazin-5-yl]phenyl]azetidine-3-carboxylic acid], the maximal effect (Emax) was found to be 91% at NURR-1/RXRα and 107% on NURR-1/RXRγ. Besides, the EC50 stood at 8 nM on NURR-1/RXRα and 15 nM on NURR-1/RXRγ. The figures for the “percentage of activity relative to the BDNF reference” value in data set [1] (compound 1 μM) and in data set [1] (compound 10 μM) were 85% and 106%, respectively.
As to `Cc1cc(-c2cc(C(F)(F)F)cc3c2NCC(C)(C)O3)cc(N2CC(C(=O)O)C2)c1` [Example 64, 1-[3-[2,2,-dimethyl-7-(triflouormethyl)3,4-dihydro-1,4-benzoxazin-5-yl]-5-methylphenyl]azetidine-3-carboxylic acid], the Emax at NURR-1/RXRα was 99%; at NURR-1/RXRγ it was 109%. Besides, the EC50 at NURR-1/RXRα and at NURR-1/RXRγ was 4 nM each time. The “percentage of activity relative to the BDNF reference” value was 81% in data set [1] (compound 1 μM) and 92% in data set [1] (compound 10 μM).
Take `CC(Oc1ccc(C(F)(F)F)cc1-c1cccc(N2CC(C(=O)O)C2)c1)c1ccccc1` (stereo not drawn) [Example 98, 1-[3-[2-(1-phenylethoxy)-5-(trifluoromethyl)phenyl]phenyl]azetidine-3-carboxylic acid]: the figures for the maximal effect (Emax) at NURR-1/RXRα and on NURR-1/RXRγ were 51% and 42%, respectively. The EC50 at NURR-1/RXRα amounted to 5 nM; at NURR-1/RXRγ, 7 nM. For the same compound, the “percentage of activity relative to the BDNF reference” value was 86% in data set [1] (compound 1 μM) and 132% in data set [1] (compound 10 μM).
On to `O=C(O)C1CN(c2cccc(-c3cc(C(F)(F)F)ccc3OCC3CCCCC3)c2)C1` [Example 104, 1-[3-[2-(cyclohenxylemthoxy)-5-(trifluoromethyl)phenyl]phenyl]azetidine-3-carboxylic acid], for which the Emax came to 40% at NURR-1/RXRα and 42% at NURR-1/RXRγ. Further, the concentration for a half-maximal effect (EC50) on NURR-1/RXRα worked out at 50 nM; at NURR-1/RXRγ, 43 nM. For the same compound, the “percentage of activity relative to the BDNF reference” value in data set [1] (compound 1 μM) is reported as 109%.
As for `CCOc1ccc(C(F)(F)F)cc1-c1cccc(N2CC(C(=O)O)C2)c1` [Example 109, 1-[3-[2-ethoxy-5-(trifluoromethyl)phenyl]phenyl]azetidine-3-carboxylic acid], the Emax was 86% at NURR-1/RXRα and 112% on NURR-1/RXRγ. Also, the figures for the EC50 at NURR-1/RXRα and on NURR-1/RXRγ were 39 nM and 67 nM, respectively. The entries for the “percentage of activity relative to the BDNF reference” value in data set [1] (compound 1 μM) and in data set [1] (compound 10 μM) were 145% and 147%, respectively.
In the case of `CCC1CN(c2cccc(N3CC(C(=O)O)C3)c2)c2ccc(C(F)(F)F)cc2O1` (stereo not drawn) [Example 114, 1-[3-[2-ethyl-7-(trifluoromethyl)-2,3-dihydro-1,4-benzoxazin-4-yl]phenyl]azetidine-3-carboxylic acid], the Emax at NURR-1/RXRα was 139%; at NURR-1/RXRγ, 150%. In addition, the figures for the EC50 at NURR-1/RXRα and on NURR-1/RXRγ were 9 nM and 11 nM, respectively. Also, the “percentage of activity relative to the BDNF reference” value in data set [1] (compound 1 μM) worked out at 101%; in data set [1] (compound 10 μM) it was 89%.
On to `CCCC1CN(c2cccc(N3CC(C(=O)O)C3)c2)c2ccc(C(F)(F)F)cc2O1` (stereo not drawn) [Example 117, 1-[3-[2-propyl-7-(tirfluormethyl)2,3-dihydro-1,4-benzoxazin-4-yl]phenyl]azetidine-3-carboxylic acid], for which the Emax at NURR-1/RXRα turned out to be 103%; at NURR-1/RXRγ, 125%. For the same compound, the EC50 on NURR-1/RXRα was 9 nM; on NURR-1/RXRγ, 4 nM. For the same compound, the “percentage of activity relative to the BDNF reference” value in data set [1] (compound 1 μM) is 75%; in data set [1] (compound 10 μM), 84%.
On to `CC(C)Cc1cn(-c2cccc(N3CC(C(=O)O)C3)c2)c2ccc(C(F)(F)F)cc12` [Example 125, 1-[3-[3-isobutyl-5-(trifluoromethyl)indol-1-yl]phenyl]azetidine-3-carboxylic acid], for which the Emax at NURR-1/RXRα amounted to 152%; on NURR-1/RXRγ, 162%. Besides, the results for the EC50 on NURR-1/RXRα and on NURR-1/RXRγ were 4 nM and 2 nM, respectively. Moreover, the “percentage of activity relative to the BDNF reference” value in data set [1] (compound 1 μM) is 86%; in data set [1] (compound 10 μM), 107%.
On to `CN(C)S(=O)(=O)c1cn(-c2cccc(N3CC(C(=O)O)C3)c2)c2ccc(C(F)(F)F)cc12` [Example 136, 1-[3-[3-(dimethylsulfamoyl)-5-(trifluoromethyl)indol-1-yl]phenyl]azetidine-3-carboxylic acid], for which the Emax at NURR-1/RXRα was 128%; at NURR-1/RXRγ, 121%. The EC50 on NURR-1/RXRα came out at 22 nM; on NURR-1/RXRγ it was 55 nM. For the same compound, the “percentage of activity relative to the BDNF reference” value is 49% in data set [1] (compound 1 μM) and 86% in data set [1] (compound 10 μM).
Consider `Cc1cn(-c2cccc(N3CC(C(=O)NCCCO)C3)c2)c2ccc(C(F)(F)F)cc12` [Example 154, N-(3-hydroxypropyl)-1-[3-[3-methyl-5-(trifluoromethyl)indol-1-yl]phenyl]azetidine-3-carboxamide], for which the values for the Emax on NURR-1/RXRα and at NURR-1/RXRγ were 111% and 104%, respectively. Also, the EC50 is under 1 nM at NURR-1/RXRα and 3 nM at NURR-1/RXRγ. Also, the “percentage of activity relative to the BDNF reference” value in data set [1] (compound 1 μM) was determined as 67%; in data set [1] (compound 10 μM), 105%.
Usually melting point stands for the temperature of the solid-liquid transition. In the case of `CC(C)c1ccc2c(c1)c1c(n2-c2cccc(N3CC(C(=O)O)C3)c2)CCC(C)(C)C1` [Example 260, 1-[3-(6-isopropyl-3,3-dimethyl-2,4-1H-carbzaol-9-yl)phenyl]azetidine-3-carboxylic acid], the melting point is 55 to 82 °C. For the same compound, on NURR-1/RXRα, the Emax stood at 56% and the EC50 is 255 nM. Moreover, on NURR-1/RXRγ, the maximum response (Emax) amounted to 56% and the EC50 was 551 nM.
The compound `O=C([O-])C1CN(c2cccc(N3c4ccc(Cl)cc4C4CCCC43)c2)C1.[Na+]` (stereo not drawn) [Example 261, sodium 1-[3-(7-chloro-2,3,3a,8b-tetrahydro-1H-cyclopenta[b]indol-4-yl)phenyl]azetidine-3-carboxylate] showed a melting point of 141 to 170 °C. On NURR-1/RXRα, the maximum response (Emax) was 78% and the EC50 was found to be 31 nM. Moreover, at NURR-1/RXRγ, the Emax was 95% and the EC50 was 304 nM.
On to `Cc1nc2cc(C(F)(F)F)ccc2n1-c1cccc(N2CC(C(=O)O)C2)c1` [Example 262, 1-[3-[2-methyl-5-(trifluoromethyl)benzimidazol-1-yl]phenyl]azetidine-3carboxylic acid], for which the melting point was in the range of 94 to 96 °C. Besides, on NURR-1/RXRα, the Emax worked out at 81% and the EC50 stood at 1700 nM. Besides, on NURR-1/RXRγ, the maximum response (Emax) amounted to 98% and the EC50 amounted to 2830 nM.
`CCC1(C)C=C(c2cccc(N3CC(C(=O)[O-])C3)c2)c2ccc(C(F)(F)F)cc2O1.[Na+]` (stereo not drawn) [Example 266, sodium 1-[3-[2-ethyl-2-methyl-7-(trifluoromethyl)chromen-4-yl]phenyl]azetidine-3-carboxylate] displayed a melting point of 201 to 214 °C. At NURR-1/RXRα, the Emax was 112% and the EC50 came to 1 nM. Further, on NURR-1/RXRγ, the maximal response (Emax) was found to be 113% and the EC50 was about 1 nM.
For `O=C([O-])C1CN(c2cccc(N3c4ccc(Cl)cc4C4CC43)c2)C1.[Na+]` (stereo not drawn) [Example 280, sodium 1-[3-(5-chloro-1a,6b-dihydro-1H-cyclopropa[b]indol-2-yl)phenyl]azetidine-3-carboxylate], in that order: 62 to 69 °C, 95%, 82 nM, 77% and 148 nM.
